Results on four molecules are retold here after patent US8906826B2, “Herbicidal compositions comprising 4-amino-3-chloro-5-fluoro-6-(4-chloro-2-fluoro-3-methoxyphenyl) pyridine-2-carboxylic acid or a derivative thereof and imidazolinones” (Dow AgroSciences, LLC, priority 2012, dated 2014).

The subject of one test is IPOHE. The test is described as follows: Postemergence foliar-applied, direct seeded rice weeds (Example I). It is filed as in vivo, Ipomoea hederacea Jacq. An excerpt:
(§1) Seeds or nutlets of the desired test plant species were planted in a soil matrix prepared by mixing a loam or sandy loam soil (e.g., 28.6 percent silt, 18.8 percent clay, and 52.6 percent sand, with a pH of about 5.8 and an organic matter content of about 1.8 percent) and calcareous grit in an 80 to 20 ratio. The soil matrix was contained in plastic pots with a volume of 1 quart and a surface area of 83.6 cm^2. When required to ensure good germination and healthy plants, a fungicide treatment and/or other chemical or physical treatment was applied. The plants were grown for 8-22 days in a greenhouse with an approximate 14 h photoperiod which was maintained at about 29° C. during the day and 26° C. during the night. Nutrients (Peters Excel® 15-5-15 5-Ca 2-Mg and iron chelate) were applied in the irrigation solution as needed and water was added on a regular basis. Supplemental lighting was provided with overhead metal halide 1000-Watt lamps as necessary. The plants were employed for testing when they reached the first through fourth true leaf stage.
(§2) Treatments consisted of the acid or esters of 4-amino-3-chloro-5-fluoro-6-(4-chloro-2-fluoro-3-methoxy-phenyl)pyridine-2-carboxylic acid (Compound A), each formulated as an SC (suspension concentrate), and various herbicidal components alone and in combination. Forms of compound A were applied on an acid equivalent basis.
(§3) Other herbicidal components were applied on an acid equivalent basis and include acetolactate synthase (ALS)-inhibiting herbicides (imidazolinone chemical class) imazethapyr ammonium salt formulated as Newpath®, imazamox ammonium salt formulated as Beyond®, imazapic ammonium salt formulated as Plateau®, imazapyr isopropylamine salt formulated as Arsenal®, imazamethabenz-methyl (technical material) and imazaquin isopropylamine salt formulated as Scepter®/Imagine®.
(§4) Treatment requirements were calculated based upon the rates being tested, the concentration of active ingredient or acid equivalent in the formulation, and a 12 mL application volume at a rate of 187 L/ha.
(§5) For treatments comprised of formulated compounds, measured amounts of compounds were placed individually in 25 mL glass vials and diluted in a volume of 1.25% (v/v) Agri-Dex® crop oil concentrated to obtain 12× stock solutions. […] Application solutions were prepared by adding an appropriate amount of each stock solution (e.g., 1 mL) and diluted to the appropriate final concentrations with the addition of 10 mL of an aqueous mixture of 1.25% (v/v) crop oil concentrate so that the final spray solutions contained 1.25+/−0.05% (v/v) crop oil concentrate.
(§6) For treatments comprised of technical compounds, weighed amounts can be placed individually in 25 mL glass vials and dissolved in a volume of 97:3 v/v acetone/DMSO to obtain 12× stock solutions. […] Application solutions can be prepared by adding an appropriate amount of each stock solution (e.g., 1 mL) and diluted to the appropriate final concentrations with the addition of 10 mL of an aqueous mixture of 1.5% (v/v) crop oil concentrate so that the final spray solutions contain 1.25% (v/v) crop oil concentrate. When technical materials are used, the concentrated stock solutions can be added to the spray solutions so that the final acetone and DMSO concentrations of the application solutions are 16.2% and 0.5%, respectively.
(§7) For treatments comprised of formulated and technical compounds, weighed amounts of the technical materials were placed individually in 25 mL glass vials and dissolved in a volume of 97:3 v/v acetone/DMSO to obtain 12× stock solutions, and measured amounts of the formulated compounds were placed individually in 25 mL glass vials and diluted in a volume of 1.5% (v/v) crop oil concentrate or water to obtain 12× stock solutions. […]

For a further test, the system named is DIGSA. Described as above. Format: in vivo, Digitaria sanguinalis (L.) Scop. The following applies: Compound A n-Butyl Ester 16 gae/ha.
Text: as §1, §2, §3, §4
For treatments comprised of formulated compounds, measured amounts of compounds were placed individually in 25 mL glass vials and diluted in a volume of 1.25% (v/v) Agri-Dex® crop oil concentrated to obtain 12× stock solutions. […]
as §7

The next test relates to CYPRO. The test is described as follows: In-water applied, transplanted paddy rice weeds (Example II). The following applies: Imazapyr IPA 70 gae/ha. Format: in vivo, Cyperus rotundus L. Here is the method: Weed seeds or nutlets of the desired test plant species were planted in puddled soil (mud) prepared by mixing a shredded, non-sterilized mineral soil (50.5 percent silt, 25.5 percent clay, and 24 percent sand, with a pH of about 7.6 and an organic matter content of about 2.9 percent) and water at a 1:1 volumetric ratio. The prepared mud was dispensed in 365 mL aliquots into 16-ounce (oz.) non-perforated plastic pots with a surface area of 86.59 square centimeters (cm^2) leaving a headspace of 3 centimeters (cm) in each pot. Mud was allowed to dry overnight prior to planting or transplanting. Rice seeds were planted in Sun Gro MetroMix® 306 planting mixture, which typically has a pH of about 6.0 to about 6.8 and an organic matter content of about 30 percent, in plastic plug trays. Seedlings at the second or third leaf stage of growth were transplanted into 860 mL of mud contained in 32-oz. non-perforated plastic pots with a surface area of 86.59 cm^2 4 days prior to herbicide application. The paddy was created by filling the headspace of the pots with 2.5 to 3 cm of water. When required to ensure good germination and healthy plants, a fungicide treatment and/or other chemical or physical treatment was applied. The plants were grown for 4-22 days in a greenhouse with an approximate 14 h photoperiod which was maintained at about 29° C. during the day and about 26° C. during the night. Nutrients were added as Osmocote® (19:6:12, N:P:K+minor nutrients) at 2 g per 16-oz. pot and 4 g per 32-oz. pot. […]
(§8) Treatment requirements for each compound or herbicidal component were calculated based upon the rates being tested, the concentration of active ingredient or acid equivalent in the formulation, an application volume of 2 mL per component per pot, and an application area of 86.59 cm^2 per pot.
For formulated compounds, a measured amount was placed in an individual 100 or 200 mL glass vial and was dissolved in a volume of 1.25% (v/v) Agri-Dex® crop oil concentrate to obtain application solutions. […]

The subject of the next test is ECHOR. The description is as above. Format: in vivo, Echinochloa oryzoides (Ard.) Fritsch. Here is the method: Weed seeds or nutlets of the desired test plant species were planted in puddled soil (mud) prepared by mixing a shredded, non-sterilized mineral soil (50.5 percent silt, 25.5 percent clay, and 24 percent sand, with a pH of about 7.6 and an organic matter content of about 2.9 percent) and water at a 1:1 volumetric ratio. The prepared mud was dispensed in 365 mL aliquots into 16-ounce (oz.) non-perforated plastic pots with a surface area of 86.59 square centimeters (cm^2) leaving a headspace of 3 centimeters (cm) in each pot. Mud was allowed to dry overnight prior to planting or transplanting. Rice seeds were planted in Sun Gro MetroMix® 306 planting mixture, which typically has a pH of about 6.0 to about 6.8 and an organic matter content of about 30 percent, in plastic plug trays. Seedlings at the second or third leaf stage of growth were transplanted into 860 mL of mud contained in 32-oz. non-perforated plastic pots with a surface area of 86.59 cm^2 4 days prior to herbicide application. The paddy was created by filling the headspace of the pots with 2.5 to 3 cm of water. When required to ensure good germination and healthy plants, a fungicide treatment and/or other chemical or physical treatment was applied. The plants were grown for 4-22 days in a greenhouse with an approximate 14 h photoperiod which was maintained at about 29° C. during the day and about 26° C. during the night. Nutrients were added as Osmocote® (19:6:12, N:P:K+minor nutrients) at 2 g per 16-oz. pot and 4 g per 32-oz. pot. Water was added on a regular basis to maintain the paddy flood, and supplemental lighting was provided with overhead metal halide 1000-Watt lamps as necessary. The plants were employed for testing when they reached the first through fourth true leaf stage.
Treatments consisted of the acid or esters of 4-amino-3-chloro-5-fluoro-6-(4-chloro-2-fluoro-3-methoxy-phenyl)pyridine-2-carboxylic acid (compound A) each formulated as an SC and various herbicidal components alone and in combination. Forms of compound A were applied on an acid equivalent basis.
Other herbicidal components were applied on an acid equivalent basis and included the acetolactate synthase (ALS)-inhibiting imidazolinone herbicides imazethapyr ammonium salt formulated as Newpath®, imazamox ammonium salt formulated as Beyond®, imazapic ammonium salt formulated as Plateau®, imazapyr isopropylamine salt formulated as Arsenal®, imazamethabenz-methyl (technical material), and imazaquin isopropylamine salt formulated as Scepter®.
as §8
For formulated compounds, a measured amount was placed in an individual 100 or 200 mL glass vial and was dissolved in a volume of 1.25% (v/v) Agri-Dex® crop oil concentrate to obtain application solutions.
For technical grade compounds, a weighed amount was placed in an individual 100 to 200 mL glass vial and was dissolved in a volume of acetone to obtain concentrated stock solutions. […] The concentrated stock solutions obtained were diluted with an equivalent volume of an aqueous mixture containing 2.5% (v/v) crop oil concentrate so that the final application solutions contained 1.25% (v/v) crop oil concentrate.
Applications were made by injecting with a pipetter appropriate amounts of the application solutions, individually and sequentially, into the aqueous layer of the paddy. Control plants were treated in the same manner with the solvent blank. Applications were made so that all treated plant material received the same concentrations of acetone and crop oil concentrate.
The treated plants and control plants were placed in a greenhouse as described above and water was added as needed to maintain a paddy flood. […]

For the next test, the system named is SASKR. Briefly: Postemergence herbicidal activity in cereal crops, greenhouse (Example V). It is filed as in vivo, Salsola iberica L. Particulars: Imazamethabenz-methyl 200 gai/ha. On the procedure: (§9) Seeds of the desired test plant species were planted in Sun Gro MetroMix® 306 planting mixture, which typically has a pH of 6.0 to 6.8 and an organic matter content of about 30 percent, in plastic pots with a surface area of 103.2 square centimeters (cm^2). When required to ensure good germination and healthy plants, a fungicide treatment and/or other chemical or physical treatment was applied. The plants were grown for 7-36 days in a greenhouse with an approximate 14 hour photoperiod which was maintained at about 18° C. during the day and about 17° C. during the night. Nutrients and water were added on a regular basis and supplemental lighting was provided with overhead metal halide 1000-Watt lamps as necessary. The plants were employed for testing when they reached the second or third true leaf stage.
(§10) Treatments consisted of the benzyl ester of 4-amino-3-chloro-5-fluoro-6-(4-chloro-2-fluoro-3-methoxy-phenyl)pyridine-2-carboxylic acid (Compound A), formulated as an SC, a second cereal herbicide alone and then both in combination.
(§11) Other herbicidal components were applied on an acid equivalent basis and include acetolactate synthase (ALS)-inhibiting herbicides (imidazolinone chemical class) imazamethabenz-methyl formulated as Assert®. Spray solutions of the second cereal herbicide and experimental compound mixtures were prepared by adding the stock solutions to the appropriate amount of dilution solution to form 12 mL spray solution with active ingredients in two- and three-way combinations. […]
(§12) The treated plants and control plants were placed in a greenhouse as described above and watered by sub-irrigation to prevent wash-off of the test compounds. After 20-22 days, the condition of the test plants as compared with that of the control plants was determined visually and scored on a scale of 0 to 100 percent where 0 corresponds to no injury and 100 corresponds to complete kill. […]

For a further test, the system named is VERPE. Described as above. Format: in vivo, Veronica persica Poir. Particulars: Imazamethabenz-methyl 200 gai/ha. Here is the method: as §9, §10, §11, §12
The subject of a further test is CHEAL. Described as above. Format: in vivo, Chenopodium album L. Particulars: Imazamethabenz-methyl 200 gai/ha. On the procedure: as §9, §10, §11, §12
The test system of the next test is SINAR. The description is as above. It is filed as in vivo, Sinapis arvensis L. Particulars: Imazamethabenz-methyl 200 gai/ha. Here is the method: as §9, §10, §11, §12
For a further test, the system named is PAPRH. The description is as above. It is filed as in vivo, Papaver rhoeas L. The following applies: Imazamethabenz-methyl 200 gai/ha. On the procedure: as §9, §10, §11, §12
For a further test, the system named is CYPIR. Briefly: Postemergence foliar-applied, direct seeded rice weeds (Example I). It is filed as in vivo, Cyperus iria L.
Text: as §1, §2, §3, §4, §5, §6, §7

Another test deals with CIRAR. The test is described as follows: Postemergence herbicidal activity in cereal crops, greenhouse (Example V). The following applies: Imazamethabenz-methyl 200 gai/ha. Format: in vivo, Cirsium arvense (L.) Scop. On the procedure: as §9, §10, §11, §12

Consider `CC(C)C1(C)N=C(c2nc3ccccc3cc2C(=O)O)NC1=O` (racemic) [Imazaquin IPA, (±)-2-[4,5-dihydro-4-methyl-4-(1-methylethyl)-5-oxo-1H-imidazol-2-yl]-3-quinolinecarboxylic acid with 2-propanamine, reference compound], for which the figures for the “Visual Weed Control (%) - 21 DAA IPOHE Obs” value in the test on IPOHE (Imazaquin IPA 9 gae/ha), with IPOHE (Imazaquin IPA 18 gae/ha) and in the test with IPOHE (Imazaquin IPA 36 gae/ha) were 0%, 10% and 0%, respectively.

For the molecule `CCCCOC(=O)c1nc(-c2ccc(Cl)c(OC)c2F)c(F)c(N)c1Cl` [Compound A n-Butyl Ester], the “Visual Weed Control (%) - 20 DAA DIGSA Obs” value in the test with DIGSA came out at 15%.

With `CC(C)C1(C)N=C(c2ncccc2C(=O)O)NC1=O` (stereo not drawn) [Imazapyr IPA, 2-[4,5-dihydro-4-methyl-4-(1-methylethyl)-5-oxo-1H-imidazol-2-yl]-3-pyridinecarboxylic acid compound with 2-propanamine, reference compound], the “Visual Weed Control (%) - 22 DAA CYPRO Obs” value in the test on CYPRO is given as 70%. The “Visual Weed Control (%) - 21 DAA IPOHE Obs” value came out at 50% in the test with IPOHE (Imazapyr IPA 4.38 gae/ha) and 40% in the test on IPOHE (Imazapyr IPA 8.75 gae/ha). The “Visual Weed Control (%) - 22 DAA ECHOR Obs” value in the test on ECHOR (Imazapyr IPA 70 gae/ha) is on record as 50%; in the test with ECHOR (Imazapyr IPA 140 gae/ha), 85%.

Take “methyl 2-[4,5-dihydro-4-methyl-4-(1-methylethyl)-5-oxo-1H-imidazol-2-yl]-4-methylbenzoic acid or methyl 2-[4,5-dihydro-4-methyl-4-(1-methylethyl)-5-oxo-1H-imidazol-2-yl]-5-methylbenzoic acid or mixtures thereof [Imazamethabenz-methyl, reference compound]”: in the test on SASKR, the “Visual Weed Control (%) - 21 DAA SASKR Obs” value was 70%. For the same molecule, the “Visual Weed Control (%) - 21 DAA VERPE Obs” value in the test on VERPE was 0%. Also, in the test on CHEAL, the “Visual Weed Control (%) - 21 DAA CHEAL Obs” value was determined as 0%. Besides, the “Visual Weed Control (%) - 21 DAA SINAR Obs” value in the test with SINAR was 70%. Further, in the test on PAPRH, the “Visual Weed Control (%) - 21 DAA PAPRH Obs” value is given as 0%. The “Visual Weed Control (%) - 22 DAA CYPIR Obs” value in the test with CYPIR (Imazamethabenz-methyl 43.75 gai/ha) came to 0%; in the test with CYPIR (Imazamethabenz-methyl 87.5 gai/ha), 20%; in the test with CYPIR (Imazamethabenz-methyl 175 gai/ha), 25%. In addition, in the test with CIRAR, the “Visual Weed Control (%) - 21 DAA CIRAR Obs” value stood at 0%.
